Test results published in patent publication US11014934B2, “Antiseptic drug” (AO “TATKHIMFARMPREPARATY”, priority 2017, dated 2021).
Like-named read-outs stand apart in the source and are kept apart here.

Key:
Experiment in all cases: MIC, serial dilutions in Müller-Hinton broth
Assay type in all cases: cell-based
Klebsiella spp. 11 = system: Klebsiella spp. 11
How it was run: (§1)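 Broth microdilution in Müller-Hinton broth following MUK 4.2.1890-04, with two-fold compound dilutions at final 1-128 ug/ml. The inoculum was set to 0.5 McFarland and diluted to 10^7 CFU/ml before addition, then plates were incubated at 37° C. for 24 hours. MIC was the lowest concentration without visible growth, taking the highest of three independent runs.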

Ps. aeruginosa 1945 PR = system: Ps. aeruginosa 1945 PR
How it was run: as §1

S. aureus 1163 MRSA = system: S. aureus 1163 MRSA
How it was run: as §1

Kl. pneumoniae 1953 PR = system: Kl. pneumoniae 1953 PR
How it was run: as §1

E. faecium 3062 = system: E. faecium 3062
How it was run: as §1

S. aureus 1130 MRSA = system: S. aureus 1130 MRSA
How it was run: as §1

E. coli CDCF-50 = system: E. coli CDCF-50
How it was run: as §1

S. aureus 19 = system: S. aureus 19
How it was run: as §1

S. aureus 1168 MRSA = system: S. aureus 1168 MRSA
How it was run: as §1

Moraxella sp. 765 = system: Moraxella sp. 765
How it was run: as §1

S. aureus 18 = system: S. aureus 18
How it was run: as §1

Moraxella sp.834 = system: Moraxella sp.834
How it was run: as §1

Moraxella sp. 713 = system: Moraxella sp. 713
How it was run: as §1

Serratia spp. 15 = system: Serratia spp. 15
How it was run: as §1

A. baumannii 1440 = system: A. baumannii 1440
How it was run: as §1

Q: How did the MIC (Klebsiella spp. 11; Klebsiella spp. 11, inoculum 10^7 CFU/ml, read-out: MIC) turn out when `CCCCCCCCCCCC[N+](C)(C)Cc1cnc(C[N+](C)(C)CCCCCCCCCCCC)c2c1COC(CC)O2` (stereo not drawn) [Compound I, 5,8-(Bis(methylene (N, N-dimethyl-N-dodecylammonium))-2-ethyl-4H-[1,3]dioxino [4,5-c]pyridiniumdichloride] was run?
A: The MIC was 16 µg/mL.

Q: What about the MIC (Ps. aeruginosa 1945 PR; Pseudomonas aeruginosa, Ps. aeruginosa 1945 PR, inoculum 10^7 CFU/ml, read-out: MIC) of the same compound?
A: The MIC was 64 µg/mL.

Q: What about the MIC (S. aureus 1163 MRSA; Staphylococcus aureus, S. aureus 1163 MRSA, inoculum 10^7 CFU/ml, read-out: MIC) of the same compound?
A: The MIC was 4 µg/mL.

Q: And the MIC (Kl. pneumoniae 1953 PR; Klebsiella pneumoniae, Kl. pneumoniae 1953 PR, inoculum 10^7 CFU/ml, read-out: MIC)?
A: Its MIC is 2 µg/mL.

Q: And the MIC (E. faecium 3062; Enterococcus faecium, E. faecium 3062, inoculum 10^7 CFU/ml, read-out: MIC)?
A: Its MIC is 0.5 µg/mL.

Q: And the MIC (S. aureus 1130 MRSA; Staphylococcus aureus, S. aureus 1130 MRSA, inoculum 10^7 CFU/ml, read-out: MIC)?
A: The MIC was 2 µg/mL.

Q: And the MIC (E. coli CDCF-50; Escherichia coli, CDCF50, E. coli CDCF-50, inoculum 10^7 CFU/ml, read-out: MIC)?
A: Its MIC is 8 µg/mL.

Q: What about the MIC (S. aureus 19; Staphylococcus aureus, S. aureus 19, inoculum 10^7 CFU/ml, read-out: MIC) of the same compound?
A: Its MIC is 2 µg/mL.

Q: And the MIC (S. aureus 1168 MRSA; Staphylococcus aureus, S. aureus 1168 MRSA, inoculum 10^7 CFU/ml, read-out: MIC)?
A: Its MIC is 1 µg/mL.

Q: What about the MIC (Moraxella sp. 765; Moraxella sp. 765, inoculum 10^7 CFU/ml, read-out: MIC) of the same compound?
A: Its MIC is 4 µg/mL.

Q: What about the MIC (S. aureus 18; Staphylococcus aureus, S. aureus 18, inoculum 10^7 CFU/ml, read-out: MIC) of the same compound?
A: The MIC was 4 µg/mL.

Q: What about the MIC (Moraxella sp.834; Moraxella sp.834, inoculum 10^7 CFU/ml, read-out: MIC) of the same compound?
A: Its MIC is 4 µg/mL.

Q: And the MIC (Moraxella sp. 713; Moraxella sp. 713, inoculum 10^7 CFU/ml, read-out: MIC)?
A: Its MIC is 8 µg/mL.

Q: And the MIC (Serratia spp. 15; Serratia spp. 15, inoculum 10^7 CFU/ml, read-out: MIC)?
A: Its MIC is 16 µg/mL.

Q: What about the MIC (A. baumannii 1440; Acinetobacter baumannii, A. baumannii 1440, inoculum 10^7 CFU/ml, read-out: MIC) of the same compound?
A: The MIC was 8 µg/mL.

Q: Which MIC (Klebsiella spp. 11; Klebsiella, SPP.11) does the source give for `CCCCCCCCCCCCCC(=O)NCCC[N+](C)(C)Cc1ccccc1.O.[Cl-]` [Miramistin, benzyldimethyl [3-(myristoylamino)propyl]-ammonium chloride monohydrate] here?
A: Its MIC is 64 µg/mL.

Q: What about the MIC (Ps. aeruginosa 1945 PR; Pseudomonas aeruginosa, 1945PR) of the same compound?
A: Its MIC is greater than 64 µg/mL.

Q: What about the MIC (S. aureus 1163 MRSA; Staphylococcus aureus, MRSA) of the same compound?
A: The MIC was 4 µg/mL.

Q: And the MIC (Kl. pneumoniae 1953 PR; Klebsiella pneumoniae, 1953PR)?
A: Its MIC is 64 µg/mL.

Q: And the MIC (E. faecium 3062; Enterococcus faecium, 3062)?
A: The MIC was 0.5 µg/mL.

Q: And the MIC (S. aureus 1130 MRSA; Staphylococcus aureus, MRSA)?
A: Its MIC is 4 µg/mL.

Q: And the MIC (E. coli CDCF-50; Escherichia coli, CDCF50)?
A: The MIC was 64 µg/mL.

Q: What about the MIC (S. aureus 19; Staphylococcus aureus, 19) of the same compound?
A: The MIC was 16 µg/mL.

Q: What about the MIC (S. aureus 1168 MRSA; Staphylococcus aureus, MRSA) of the same compound?
A: Its MIC is 8 µg/mL.

Q: And the MIC (Moraxella sp. 765; Moraxella, SP.765)?
A: Its MIC is 64 µg/mL.

Q: What about the MIC (S. aureus 18; Staphylococcus aureus, 18) of the same compound?
A: Its MIC is 16 µg/mL.

Q: And the MIC (Moraxella sp.834; Moraxella, SP.834)?
A: Its MIC is 32 µg/mL.

Q: What about the MIC (Moraxella sp. 713; Moraxella, SP.713) of the same compound?
A: The MIC was 32 µg/mL.

Q: And the MIC (Serratia spp. 15; Serratia, SPP.15)?
A: The MIC was greater than 64 µg/mL.

Q: And the MIC (A. baumannii 1440; Acinetobacter baumannii, 1440)?
A: Its MIC is 64 µg/mL.

Q: With “alkyldimethyl(phenylmethyl) ammonium chloride [Benzalconium chloride]” as the compound, how does the MIC (Klebsiella spp. 11; Klebsiella spp. 11, inoculum 10^7 CFU/ml) read?
A: Its MIC is 2 µg/mL.

Q: What about the MIC (Ps. aeruginosa 1945 PR; Ps. aeruginosa 1945 PR, inoculum 10^7 CFU/ml) of the same compound?
A: Its MIC is greater than 64 µg/mL.

Q: And the MIC (S. aureus 1163 MRSA; S. aureus 1163 MRSA, inoculum 10^7 CFU/ml)?
A: The MIC was 4 µg/mL.

Q: What about the MIC (Kl. pneumoniae 1953 PR; Kl. pneumoniae 1953 PR, inoculum 10^7 CFU/ml) of the same compound?
A: The MIC was 16 µg/mL.

Q: What about the MIC (E. faecium 3062; E. faecium 3062, inoculum 10^7 CFU/ml) of the same compound?
A: The MIC was 1 µg/mL.

Q: And the MIC (S. aureus 1130 MRSA; S. aureus 1130 MRSA, inoculum 10^7 CFU/ml)?
A: Its MIC is 2 µg/mL.

Q: And the MIC (E. coli CDCF-50; E. coli CDCF-50, inoculum 10^7 CFU/ml)?
A: Its MIC is 4 µg/mL.

Q: What about the MIC (S. aureus 19; S. aureus 19, inoculum 10^7 CFU/ml) of the same compound?
A: The MIC was less than 0.5 µg/mL.

Q: And the MIC (S. aureus 1168 MRSA; S. aureus 1168 MRSA, inoculum 10^7 CFU/ml)?
A: The MIC was 2 µg/mL.

Q: What about the MIC (Moraxella sp. 765; Moraxella sp. 765, inoculum 10^7 CFU/ml) of the same compound?
A: The MIC was 32 µg/mL.

Q: And the MIC (S. aureus 18; S. aureus 18, inoculum 10^7 CFU/ml)?
A: The MIC was less than 0.5 µg/mL.

Q: And the MIC (Moraxella sp.834; Moraxella sp.834, inoculum 10^7 CFU/ml)?
A: The MIC was 2 µg/mL.

Q: What about the MIC (Moraxella sp. 713; Moraxella sp. 713, inoculum 10^7 CFU/ml) of the same compound?
A: The MIC was 4 µg/mL.

Q: And the MIC (Serratia spp. 15; Serratia spp. 15, inoculum 10^7 CFU/ml)?
A: The MIC was 2 µg/mL.

Q: What about the MIC (A. baumannii 1440; A. baumannii 1440, inoculum 10^7 CFU/ml) of the same compound?
A: The MIC was 32 µg/mL.
